# In patent publication US20230374038A1, “MODULATORS OF CYSTIC FIBROSIS TRANSMEMBRANE CONDUCTANCE REGULATOR” (VERTEX PHARMACEUTICALS INCORPORATED, priority 2020, published 2023):
# Where two headings read alike, the source gives them in different places.
# How the values were obtained:
# [1] = biological target: CFTR (Homo sapiens, UniProt P13569); assay: Membrane Potential Dye, Enteroid Assay B; format: cell-based
# In short: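 Membrane-potential fluorescence read over 15 min after chloride-free stimulation (forskolin 10 μM, IBMX 100 μM, Compound III 300 nM), with CaCCinh-A01 and Chicago Sky Blue present. Enteroids had 18-24 h compound exposure at 37 °C; activity given as % of the triple-combination corrector/potentiator reference response.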
# CFTR, sequence (P13569 with tags, fused parts or gaps DEL508-508): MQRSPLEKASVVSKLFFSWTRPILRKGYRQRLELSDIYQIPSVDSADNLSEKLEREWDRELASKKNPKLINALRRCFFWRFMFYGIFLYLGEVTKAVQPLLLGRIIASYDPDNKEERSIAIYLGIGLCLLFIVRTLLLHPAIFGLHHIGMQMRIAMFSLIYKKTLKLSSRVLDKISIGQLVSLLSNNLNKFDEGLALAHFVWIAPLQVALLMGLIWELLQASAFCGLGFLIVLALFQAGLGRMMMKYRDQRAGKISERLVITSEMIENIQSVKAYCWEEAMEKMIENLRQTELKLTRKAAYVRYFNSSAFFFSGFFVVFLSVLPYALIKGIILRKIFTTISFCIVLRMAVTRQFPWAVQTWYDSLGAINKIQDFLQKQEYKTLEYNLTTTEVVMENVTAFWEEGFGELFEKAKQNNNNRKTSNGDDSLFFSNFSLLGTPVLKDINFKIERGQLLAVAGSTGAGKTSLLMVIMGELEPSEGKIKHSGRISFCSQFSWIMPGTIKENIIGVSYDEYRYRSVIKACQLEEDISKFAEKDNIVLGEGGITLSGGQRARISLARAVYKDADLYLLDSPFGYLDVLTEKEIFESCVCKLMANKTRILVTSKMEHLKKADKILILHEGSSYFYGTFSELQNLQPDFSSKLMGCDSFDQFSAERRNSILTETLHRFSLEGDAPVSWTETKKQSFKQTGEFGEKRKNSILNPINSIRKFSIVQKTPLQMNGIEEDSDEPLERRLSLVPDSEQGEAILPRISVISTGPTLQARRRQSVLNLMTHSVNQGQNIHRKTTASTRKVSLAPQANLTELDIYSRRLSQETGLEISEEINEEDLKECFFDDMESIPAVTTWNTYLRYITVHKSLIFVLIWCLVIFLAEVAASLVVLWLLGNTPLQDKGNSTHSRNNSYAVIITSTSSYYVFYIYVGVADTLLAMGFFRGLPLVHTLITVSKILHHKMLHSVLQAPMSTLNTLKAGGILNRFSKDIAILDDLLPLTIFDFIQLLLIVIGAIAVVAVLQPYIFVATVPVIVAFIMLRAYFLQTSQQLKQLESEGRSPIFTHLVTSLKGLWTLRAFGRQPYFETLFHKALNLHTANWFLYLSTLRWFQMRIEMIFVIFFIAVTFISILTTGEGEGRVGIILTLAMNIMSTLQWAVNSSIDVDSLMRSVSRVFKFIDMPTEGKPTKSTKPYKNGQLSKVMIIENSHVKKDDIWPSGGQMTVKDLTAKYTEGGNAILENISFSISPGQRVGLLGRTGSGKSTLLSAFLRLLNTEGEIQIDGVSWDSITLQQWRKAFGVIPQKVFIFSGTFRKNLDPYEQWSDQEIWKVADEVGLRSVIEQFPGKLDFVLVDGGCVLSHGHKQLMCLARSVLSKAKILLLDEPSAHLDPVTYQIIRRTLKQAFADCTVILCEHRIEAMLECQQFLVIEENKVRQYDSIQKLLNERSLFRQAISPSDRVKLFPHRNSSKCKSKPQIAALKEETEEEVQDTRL
smiles,measurement,setting,value
CCc1c(Cl)nc2nc1Oc1ccc(Cl)c(c1)C(=O)Nc1cccc(c1)S(=O)(=O)N2,"ring closure, isolated yield","from CCc1c(Cl)nc(NS(=O)(=O)c2cccc(N)c2)nc1Oc1ccc(Cl)c(C(=O)O)c1, amide bond, 14-membered ring, HATU/DIEA, DMF, 0.42 h, 3 steps",7%
Cc1cccc(C)c1-c1nc2nc(c1Br)OC[C@@H](CC(C)C)N(C1CC3(CC3)C1)C(=O)c1cccc(c1)S(=O)(=O)N2,"ring closure, isolated yield","from Cc1cccc(C)c1-c1nc(NS(=O)(=O)c2cccc(C(=O)O)c2)nc(OC[C@@H](CC(C)C)NC2CC3(CC3)C2)c1Br, amide bond, 13-membered ring, HATU/DIEA, NMP, 105.0 mM, 24.0 h",53%
"Cc1cccc(C)c1-c1nc2nc(c1C)OC[C@@H](CCC(C)(C)O)N(C1CC3(CC3)C1)C(=O)c1cccc(c1)S(=O)(=O)N2 [Compound 106, (11R)-6-(2,6-dimethylphenyl)-11-(3-hydroxy-3-methyl-butyl)-7-methyl-2,2-dioxo-12-spiro[2.3]hexan-5-yl-9-oxa-2λ^6-thia-3,5,12,19-tetrazatricyclo[12.3.1.14,8]nonadeca-1(18),4(19),5,7,14,16-hexaen-13-one]","ring closure, isolated yield","from Cc1cccc(C)c1-c1nc(NS(=O)(=O)c2cccc(C(=O)O)c2)nc(OC[C@@H](CCC(C)(C)O)NC2CC3(CC3)C2)c1C, amide bond, 13-membered ring, T3P/TEA, DMF/EtOAc, 51.6 mM, 17.0 h",31%
same,Ent. B Max Activity,[1],++ (++ is 30-60%)
same,EC50,[1]; read-out: Ent. B EC50,1 to 3 µM
C[C@@H]1CC=CCC[C@](OCc2ccccc2)(C(F)(F)F)C2=NN=C(O2)c2nc(c(C(F)(F)F)cc2N(C(=O)OC(C)(C)C)C(=O)OC(C)(C)C)O1 (mixture of isomers),"ring closure, isolated yield","from C=CCC[C@@](OCc1ccccc1)(c1nnc(-c2nc(O[C@H](C)CC=C)c(C(F)(F)F)cc2N(C(=O)OC(C)(C)C)C(=O)OC(C)(C)C)o1)C(F)(F)F, rcm bond, 14-membered ring, Grubbs 1st generation, DCE, 8.92 mM, 75.0 °C, 5.25 h",53%
CC(C)(C)c1c(Cl)nc2nc1OC1CN(Cc3ccccc31)C(=O)c1cccc(c1)S(=O)(=O)N2 (stereo not shown),"ring closure, isolated yield","from CC(C)(C)c1c(Cl)nc(NS(=O)(=O)c2cccc(C(=O)N3Cc4ccccc4C(O)C3)c2)nc1Cl, snar bond, 13-membered ring, NaH, NMP, 8.0 mM, 70.0 °C, 2.0 h",39%
Cc1cccc(C)c1-c1nc2nc(c1C)OC[C@@H](CC(C)C)N(C1CC3(CC(NC(=O)OC(C)(C)C)C3)C1)C(=O)c1cccc(c1)S(=O)(=O)N2 (stereo partly shown),"ring closure, isolated yield","from Cc1cccc(C)c1-c1nc(NS(=O)(=O)c2cccc(C(=O)O)c2)nc(OC[C@@H](CC(C)C)NC2CC3(CC(NC(=O)OC(C)(C)C)C3)C2)c1C, amide bond, 13-membered ring, HATU/DIEA, DMF, 14.1 mM, 3.0 h, 2 steps",45%
CCc1c(Cl)nc2nc1Oc1cccc(c1)C(=O)Nc1cccc(c1)S(=O)(=O)N2,"ring closure, isolated yield","from CCc1c(Cl)nc(NS(=O)(=O)c2cccc(N)c2)nc1Oc1cccc(C(=O)O)c1, amide bond, 14-membered ring, HATU/DIEA, DMF, 53.0 mM, 0.33 h, 2 steps",19%
same,"ring closure, isolated yield","from CCc1c(Cl)nc(NS(=O)(=O)c2cccc(N)c2)nc1Oc1cccc(C(=O)O)c1, amide bond, 14-membered ring, HATU/DIEA, DMF, 50.0 °C, 2.5 h, 4 steps",8%
